Experimental data: the Kinase Knowledgebase extract (Sharma et al. 2016)

biological target: MAPK14 (human) (UniProt Q16539); experiment: Inhibition of MAPK14 by Human Whole Blood Assay; conditions: blood cells
Sequence (Q16539 whole entry, looked up): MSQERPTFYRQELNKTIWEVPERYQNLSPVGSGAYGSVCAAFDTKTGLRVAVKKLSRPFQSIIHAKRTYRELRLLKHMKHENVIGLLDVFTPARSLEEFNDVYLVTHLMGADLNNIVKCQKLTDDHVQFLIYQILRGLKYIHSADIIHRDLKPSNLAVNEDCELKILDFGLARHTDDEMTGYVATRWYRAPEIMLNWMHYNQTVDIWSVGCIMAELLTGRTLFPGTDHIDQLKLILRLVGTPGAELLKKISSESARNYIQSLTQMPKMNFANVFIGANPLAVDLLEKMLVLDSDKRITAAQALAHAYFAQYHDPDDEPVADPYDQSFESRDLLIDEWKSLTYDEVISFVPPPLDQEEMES

| Structure (SMILES) | IC50 [nM] |
| --- | --- |
| O=C(c1ccc2c(c1)CCO2)N(CC1CCNCC1)c1ccnc(NC2CCCC2)n1 | < 1000 |
| Nc1cc(N(Cc2ccc(F)cc2)C(=O)c2ccc3ccccc3c2)ccn1 | ≤ 1000 |
| CC(C)Nc1nccc(N(CC2CC2)C(=O)c2ccc3ccccc3c2)n1 | < 1000 |
| C[C@H](Nc1nccc(N(CCCCN)C(=O)c2ccc3c(c2)CCO3)n1)c1ccccc1 | < 1000 |
| C[C@H](Nc1nccc(N(Cc2ccc(S(C)(=O)=O)cc2)C(=O)c2ccc3ccccc3c2)n1)c1ccccc1 | ≤ 1000 |
| CC(C)C(C)Nc1nccc(N(CC2CCNCC2)C(=O)c2ccc3c(c2)CCO3)n1 (stereo unspecified) | < 1000 |
| CNc1nccc(N(CC2CCNCC2)C(=O)c2ccc3ccccc3c2)n1 | < 1000 |
| C[C@H](Nc1nccc(N(CC2CCNCC2)C(=O)c2sc3ccccc3c2Cl)n1)c1ccccc1 | < 1000 |
| CCC(COC)Nc1nccc(N(CC2CCNCC2)C(=O)c2ccc3c(c2)CCO3)n1 (stereo unspecified) | < 1000 |
| CCN(C(=O)c1ccc2c(c1)CCO2)c1ccnc(N[C@@H](C)c2ccccc2)n1 | ≤ 1000 |
| C[C@H](Nc1cc(N(Cc2ccc(F)cc2)C(=O)c2ccc3ccccc3c2)ncn1)c1ccccc1 | ≤ 1000 |
| O=C(c1ccc2ccccc2c1)N(Cc1ccc(F)cc1)c1ccnc(NC2CCN(Cc3ccccc3)CC2)c1 | ≤ 1000 |
| CC(C)Nc1nccc(N(C)C(=O)c2ccc3ccccc3c2)n1 | ≤ 1000 |
| CCN(C(=O)c1cccc(Cl)c1)c1ccnc(N[C@@H](C)c2ccccc2)n1 | < 1000 |
| CC1CCCCC1Nc1nccc(N(CC2CCNCC2)C(=O)c2ccc3c(c2)CCO3)n1 (stereo unspecified) | < 1000 |
| COCCNc1nccc(N(CC2CCNCC2)C(=O)c2ccc3c(c2)CCO3)n1 | < 1000 |
| CC(C)Nc1nccc(N(CCC[C@@H](N)C(=O)N(C)C)C(=O)c2ccc3c(c2)CCO3)n1 | < 1000 |
| C[C@H](Nc1nccc(N(C(=O)c2ccc3ccccc3c2)C2CCN(C(=O)OC(C)(C)C)CC2)n1)c1ccccc1 | < 1000 |
| O=C(c1ccc2c(c1)CCO2)N(CC1CCNCC1)c1ccnc(NC2CC2)n1 | < 1000 |

| Structure (SMILES) | IC50 [nM] |
| --- | --- |
| CC(C)Nc1nccc(N(Cc2ccc(F)cc2)C(=O)c2ccc3ccccc3c2)n1 | ≤ 1000 |
| C[C@H](Nc1nccc(N(CC2CCN(C3CCCC3)CC2)C(=O)c2ccc3c(c2)CCO3)n1)c1ccccc1 | < 1000 |
| CC(C)Nc1nccc(N(CC2CCNCC2)C(=O)c2ccc3c(c2)CCO3)n1 | < 1000 |
| COC(=O)CN1CCC(CN(C(=O)c2ccc3c(c2)CCO3)c2ccnc(NC(C)C)n2)CC1 | < 1000 |
| COCC(C)Nc1nccc(N(CCCCN)C(=O)c2ccc3c(c2)CCO3)n1 (stereo unspecified) | < 1000 |
| CCC(C)Nc1nccc(N(CC2CCNCC2)C(=O)c2ccc3c(c2)CCO3)n1 (stereo unspecified) | < 1000 |
| C[C@H](Nc1nccc(N(CC2CCNCC2)C(=O)c2cccc3ccccc23)n1)c1ccccc1 | < 1000 |
| C[C@H](Nc1nccc(N(CC2CCNCC2)C(=O)c2ccc3c(c2)CCO3)n1)c1ccccc1 | < 1000 |
| CC(C)(C)CNc1nccc(N(CC2CCNCC2)C(=O)c2ccc3c(c2)CCO3)n1 | < 1000 |
| CCCN(C(=O)c1ccc2ccccc2c1)c1ccnc(NC(C)C)n1 | ≤ 1000 |
| C[C@H](Nc1nccc(N(C(=O)c2ccc3ccccc3c2)C2CCNCC2)n1)c1ccccc1 | ≤ 1000 |
| COCCN(C(=O)c1cccc(C)c1C)c1ccnc(N[C@@H](C)c2ccccc2)n1 | < 1000 |
| C[C@H](Nc1cc(N(Cc2ccc(F)cc2)C(=O)c2ccccc2)ccn1)c1ccccc1 | ≤ 1000 |
| CCN(C(=O)c1cccc(C2CC2)c1)c1ccnc(N[C@@H](C)c2ccccc2)n1 | < 1000 |
| C[C@H](Nc1cc(N(Cc2ccc(F)cc2)C(=O)c2ccc3ccccc3c2)ccn1)c1ccc2ccccc2c1 | ≤ 1000 |
| COCCN(C(=O)c1ccc2ccccc2c1)c1ccnc(N[C@@H](C)c2ccccc2)n1 | ≤ 1000 |
| O=C(c1ccc2ccccc2c1)N(Cc1ccc(F)cc1)c1ccnc(N[C@H]2CCc3ccccc32)c1 | ≤ 1000 |
| CCN(C(=O)c1scc2c1CCCC2)c1ccnc(N[C@@H](C)c2ccccc2)n1 | < 1000 |
| CCN(C(=O)c1cccc2c1OCCO2)c1ccnc(N[C@@H](C)c2ccccc2)n1 | < 1000 |

| Structure (SMILES) | IC50 [nM] |
| --- | --- |
| CC(C)Nc1nccc(N(CC2CC[C@H](N)C2)C(=O)c2ccc3c(c2)CCO3)n1 (stereo partly specified) | < 1000 |
| O=C(c1ccc2ccccc2c1)N(Cc1ccc(F)cc1)c1ccnc(NC2CCCCC2)c1 | ≤ 1000 |
| C[C@H](Nc1nccc(N(CC2CCNCC2)C(=O)c2ccc3ccccc3c2)n1)c1ccccc1 | < 1000 |
| CCN(C(=O)c1cccc(C(Cl)Cl)c1)c1ccnc(N[C@@H](C)c2ccccc2)n1 | < 1000 |
| NCCCCN(C(=O)c1ccc2c(c1)CCO2)c1ccnc(NC2CCC(O)CC2)n1 (stereo unspecified) | < 1000 |
| COCCCNc1nccc(N(CC2CCNCC2)C(=O)c2ccc3c(c2)CCO3)n1 | < 1000 |
| C[C@H](Nc1nccc(N(CC2CCNCC2)C(=O)c2ccc3c(c2)CCCC3)n1)c1ccccc1 | < 1000 |
| COCCCN(C(=O)c1ccc2ccccc2c1)c1ccnc(N[C@@H](C)c2ccccc2)n1 | < 1000 |
| CC(C)Nc1nccc(N(CCCCN)C(=O)c2ccc3c(c2)CCO3)n1 | < 1000 |
| O=C(c1ccc2ccccc2c1)N(CC1CCNCC1)c1ccnc(NC2CCOCC2)n1 | < 1000 |
| C[C@H](Nc1nccc(N(CC2CC2)C(=O)c2ccc3c(c2)CCO3)n1)c1ccccc1 | < 1000 |
| C[C@H](Nc1cc(N(Cc2ccc(F)cc2)C(=O)c2cccs2)ccn1)c1ccccc1 | ≤ 1000 |
| CCN(C(=O)c1ccc2ccccc2c1)c1ccnc(N[C@@H](C)c2ccccc2)n1 | ≤ 1000 |
| C[C@H](Nc1nccc(N(C(=O)c2ccc3ccccc3c2)C2CC(C)(C)NC(C)(C)C2)n1)c1ccccc1 | < 1000 |
| O=C(c1ccc2c(c1)CCO2)N(CC1CCNCC1)c1ccnc(NC2CCC[C@@H]2O)n1 (stereo partly specified) | < 1000 |
| C[C@H](Nc1nccc(N(CC2CCNCC2)C(=O)c2ccc3c(c2)CCC3)n1)c1ccccc1 | < 1000 |
| O=C(c1ccc2ccccc2c1)N(Cc1ccc(F)cc1)c1ccnc(NCc2ccccc2)c1 | ≤ 1000 |
| CC(C)Nc1nccc(N(C(=O)c2ccc3ccccc3c2)C(C)C)n1 | ≤ 1000 |
| COc1ccc([C@H](C)Nc2cc(N(Cc3ccc(F)cc3)C(=O)c3ccc4ccccc4c3)ccn2)cc1 | ≤ 1000 |

Now from value to compound:

| IC50 [nM] | Structure (SMILES) |
| --- | --- |
| < 1000 | CCN(C(=O)c1ccc2c(c1)CCC2)c1ccnc(N[C@@H](C)c2ccccc2)n1 |
| < 1000 | CCc1cccc(C(=O)N(CC)c2ccnc(N[C@@H](C)c3ccccc3)n2)c1 |
| < 1000 | CCN(C(=O)c1cccc2c1OCC2)c1ccnc(N[C@@H](C)c2ccccc2)n1 |
| < 1000 | CCN(C(=O)c1ccc2occc2c1)c1ccnc(N[C@@H](C)c2ccccc2)n1 |
| ≤ 1000 | O=C(c1ccc2ccccc2c1)N(Cc1ccc(F)cc1)c1ccnc(NCCN2CCOCC2)c1 |
| ≤ 1000 | C[C@H](Nc1nccc(N(Cc2ccc(F)cc2)C(=O)c2ccc3ccccc3c2)n1)c1ccccc1 |
| ≤ 1000 | CCCN(C(=O)c1ccc2ccccc2c1)c1ccnc(N[C@@H](C)c2ccccc2)n1 |
| < 1000 | CCN(C(=O)c1ccc2ccccc2c1)c1ccnc(NC2CCC(N)CC2)n1 (stereo unspecified) |
| ≤ 1000 | CCN(C(=O)c1ccc2snnc2c1)c1ccnc(N[C@@H](C)c2ccccc2)n1 |
| < 1000 | O=C(c1ccc2ccccc2c1)N(CC1CC1)c1ccnc(NC2CCC(O)CC2)n1 (stereo unspecified) |
| ≤ 1000 | COCCN(C(=O)c1ccc2ccccc2c1)c1ccnc(NC(C)C)n1 |
| < 1000 | O=C(c1ccc2c(c1)CCC2)N(CC1CC1)c1ccnc(NC2CCC(O)CC2)n1 (stereo unspecified) |
| ≤ 1000 | C[C@H](Nc1nccc(N(Cc2cccnc2)C(=O)c2ccc3ccccc3c2)n1)c1ccccc1 |
| ≤ 1000 | CC(Nc1cc(N(Cc2ccc(F)cc2)C(=O)c2ccc3ccccc3c2)ccn1)c1ccc(F)cc1 (stereo unspecified) |
| ≤ 1000 | CC(C)N(C(=O)c1ccc2ccccc2c1)c1ccnc(N[C@@H](C)c2ccccc2)n1 |
| ≤ 1000 | COC(=O)c1ccc(CNc2cc(N(Cc3ccc(F)cc3)C(=O)c3ccc4ccccc4c3)ccn2)cc1 |
| < 1000 | COCCN(C(=O)c1ccc2c(c1)CCC2)c1ccnc(N[C@@H](C)c2ccccc2)n1 |
| < 1000 | CCN(C(=O)c1cccc(Cl)c1C)c1ccnc(N[C@@H](C)c2ccccc2)n1 |
| ≤ 1000 | C[C@@H](Nc1cc(N(Cc2ccc(F)cc2)C(=O)c2ccc3ccccc3c2)ccn1)c1ccccc1 |
| ≤ 1000 | CC(C)Nc1cc(N(Cc2ccc(F)cc2)C(=O)c2ccc3ccccc3c2)ccn1 |

| IC50 [nM] | Structure (SMILES) |
| --- | --- |
| ≤ 1000 | C[C@H](Nc1cc(N(Cc2ccc(F)cc2)S(=O)(=O)c2ccc3ccccc3c2)ccn1)c1ccccc1 |
| ≤ 1000 | C[C@H](Nc1nccc(N(C)C(=O)c2ccc3ccccc3c2)n1)c1ccccc1 |
| ≤ 1000 | O=C(c1ccc2ccccc2c1)N(Cc1ccc(F)cc1)c1ccnc(NC(c2ccccc2)c2ccccc2)c1 |
| < 1000 | CCN(C(=O)c1cccc(C)c1C)c1ccnc(N[C@@H](C)c2ccccc2)n1 |
| ≤ 1000 | O=C(c1ccc2ccccc2c1)N(Cc1ccc(F)cc1)c1ccnc(N[C@H]2CCCc3ccccc32)c1 |
| < 1000 | C[C@H](Nc1nccc(N(CC2CCN(C(N)=O)CC2)C(=O)c2ccc3c(c2)CCO3)n1)c1ccccc1 |
| < 1000 | CCN(C(=O)c1cccc(C)c1)c1ccnc(N[C@@H](C)c2ccccc2)n1 |
| ≤ 1000 | CCN(C(=O)c1ccc2nccnc2c1)c1ccnc(N[C@@H](C)c2ccccc2)n1 |
| ≤ 1000 | CCC(Nc1cc(N(Cc2ccc(F)cc2)C(=O)c2ccc3ccccc3c2)ccn1)c1ccccc1 (stereo unspecified) |
| ≤ 1000 | C[C@H](Nc1cc(N(Cc2ccccc2)C(=O)c2ccc3ccccc3c2)ccn1)c1ccccc1 |
| < 1000 | CCN(C(=O)c1cc(C)ccc1F)c1ccnc(N[C@@H](C)c2ccccc2)n1 |
| < 1000 | C[C@H](Nc1nccc(N(CC2CCNC2)C(=O)c2ccc3c(c2)CCO3)n1)c1ccccc1 (stereo partly specified) |
| < 1000 | CC(C)Nc1nccc(N(CCCCCN)C(=O)c2ccc3c(c2)CCO3)n1 |
| < 1000 | CC(C)Nc1nccc(N(CCCCN2CCCC2)C(=O)c2ccc3c(c2)CCO3)n1 |
| ≤ 1000 | CC(=O)N(Cc1ccc(F)cc1)c1ccnc(N[C@@H](C)c2ccccc2)c1 |
| ≤ 1000 | CC(Nc1cc(N(Cc2ccc(F)cc2)C(=O)c2ccc3ccccc3c2)ccn1)c1ccc(Cl)cc1 (stereo unspecified) |
| ≤ 1000 | C[C@H](Nc1cc(N(C)C(=O)N2CCc3ccccc3C2)ccn1)c1ccccc1 |
| < 1000 | C[C@H](Nc1nccc(N(CC2CC2)C(=O)c2ccc3ccccc3c2)n1)c1ccccc1 |
| ≤ 1000 | CCN(C(=O)c1ccc2ccccc2c1)c1ccnc(NC2CCNCC2)n1 |
